# According to patent US6391329B1, “Insect pest control method” (Earth Chemical Co., Ltd., priority 1994, dated 2002):
# How the values were obtained:
# [1] = tested on: Northern house mosquito (female adult); test: Insecticidal test in acrylic resin cylinder, air blown through impregnated honeycomb carrier (Example 1); format: in vivo; conditions: 500 mg preparation; for number of knockdowns: 26 to 30° C.
# Source text: Testing apparatus 1 shown in FIG. 1 comprising acrylic resin cylinder 4 was used. Twenty of northern house mosquitos (female adult) were put in the space partitioned with insect nets 2, and blower 3 was set at the bottom of testing apparatus 1. Preparation-retaining material 5 comprising a honeycomb carrier impregnated with a preparation was fitted in at the lower part of cylinder 4 and above blower 3. Air was blown from the bottom of cylinder 4 and passed through the preparation-retaining material 5 to release the pesticidal component from the preparation, and the insecticidal effect was examined using apparatus 1 for insect control of the present invention.
# The number of knockdowns of the mosquitos was counted for every 30 seconds during 10 minutes and 30 seconds following the start of the testing. The mosquitos knocked down were transferred to a clean plastic cup (volume: about 500 ml) containing a cotton wad impregnated with a 1% aqueous sugar solution as feed, and the cup was covered and maintained under constant temperature conditions of about 25° C. […]
# The preparation-retaining material used herein was prepared as follows. A honeycomb structure (70×70×15 mm) comprising a laminate of corrugated boards (single-sided) made of bleached kraft paper having a basis weight of 80 g/m^2 (height of the corrugation: about 2 mm) was uniformly impregnated with 3 ml of an acetone solution containing about 500 mg of preparation. The impregnated carrier was set in the apparatus after acetone vaporized.
# [2] = Vapor pressure at 30° C. on the cox diagram; format: physicochemical
# Experimental: Compounds which are hard to vaporize at normal temperature can be used in the present invention as a pesticidal component. Those having a vapor pressure […] than 1×10^−7 mmHg at 30° C. and a boiling point of not lower than 120° C./1 mmHg are preferred. It should be noted that the range of vapor pressure as referred to herein is the range at 30° C. on the vapor pressure vs. temperature plot in the cox diagram hereinafter described.
# The results of our study have made it possible to suppose or know the vapor pressure at a target temperature by utilizing the cox diagram only if at least one found value is available. The aforesaid problem can thus be solved.
# The cox diagram as used herein is the straight line or a group of the straight lines obtained by plotting log P as ordinate and t/(t+C) as abscissa on a graph.
# [3] = Vapor pressure measurement of pyrethroid compounds with the vapor pressure measuring apparatus
# [4] = tested on: sensitive smokybrown cockroaches (Periplaneta fuliginosa); test: Cockroach knockdown and mortality in 24 m^3 test room (Example 3); format: in vivo; conditions: 1.0 g pesticidal component
# Experimental: (§1) The insect pest control apparatus of the present invention was put at the center of the floor of the room, and two cups each containing 20 cockroaches were placed at each of the two opposite corners of the floor. The pesticidal component shown in Table 5 below was released from the apparatus for consecutive 24 hours. As test insects, sensitive German cockroaches (Blatella germanica) and sensitive smokybrown cockroaches (Periplaneta fuliginosa) were used.
# (§2) The preparation-retaining material used was prepared by impregnating a honeycomb carrier (70×70×15 mm; FIG. 3) with 1.0 g of the pesticidal component.
# [5] = tested on: sensitive German cockroaches (Blatella germanica); test: as above; format: in vivo; conditions: 1.0 g pesticidal component
# Experimental: as §1, §2
SMILES,number of knockdowns ([1]; 0.5 min),number of knockdowns ([1]; 1.0 min),number of knockdowns ([1]; 1.5 min),number of knockdowns ([1]; 2.0 min),number of knockdowns ([1]; 2.5 min),number of knockdowns ([1]; 3.0 min),number of knockdowns ([1]; 3.5 min),Mortality (%) ([1]; 24 hrs.),Mortality (%) ([1]; 48 hrs.),Vapor Pressure at 30° C. [2],Vapor Pressure ([3]; 20° C.),Vapor Pressure ([3]; 25° C.),Vapor Pressure ([3]; 30° C.),Vapor Pressure ([3]; 35° C.),Vapor Pressure ([3]; 40° C.),other results
"C#CCc1ccc(COC(=O)C2C(C=C(C)C)C2(C)C)o1 (mixture of isomers) [furamethrin, 5-propargyl-2-furylmethyl d-cis/trans-chrysanthemate]",0,0,0,1,3,8,18,100%,100%,4.5 × 10^−4 mmHg,1.3 × 10^−4 mmHg,2.2 × 10^−4 mmHg,4.5 × 10^−4 mmHg,7.1 × 10^−4 mmHg,1.4 × 10^−3 mmHg,number of knockdowns ([1]; 4.0 min): 19
"CC1(C)C(C=C(Cl)Cl)C1C(=O)OCc1cccc(Oc2ccccc2)c1 (mixture of isomers) [permethrin, 3-phenoxybenzyl-dl-cis/trans-3-(2,2-dichlorovinyl)-2,2-dimethyl-1-cyclopropanecarboxylate]",,,,,,,,,,,5.5 × 10^−7 mmHg,1.1 × 10^−6 mmHg,1.9 × 10^−6 mmHg,3.6 × 10^−6 mmHg,6.3 × 10^−6 mmHg,
"CC(C)=CC1C(C(=O)OCc2cccc(Oc3ccccc3)c2)C1(C)C (mixture of isomers) [phenothrin, 3-phenoxybenzyl-d-cis/trans-chrysanthemate]",,,,,,,,,,,1.2 × 10^−6 mmHg,2.2 × 10^−6 mmHg,4.3 × 10^−6 mmHg,7.7 × 10^−6 mmHg,1.4 × 10^−5 mmHg,
"CC(C)=CC1C(C(=O)OCN2C(=O)C3=C(CCCC3)C2=O)C1(C)C (mixture of isomers) [phthalthrin, (1,3,4,5,6,7-hexahydro-1,3-dioxo-2-isoindolyl)methyl dl-cis/trans-chrysanthemate]",,,,,,,,,,,3.5 × 10^−8 mmHg,6.6 × 10^−8 mmHg,1.2 × 10^−7 mmHg,2.2 × 10^−7 mmHg,3.8 × 10^−7 mmHg,
"C#CCC1=C(C)C(OC(=O)C2C(C=C(C)C)C2(C)C)CC1=O (mixture of isomers) [prallethrin, (+)-2-methyl-4-oxo-3-(2-propynyl)-2-cyclopentenyl (+)-cis/trans-chrysanthemate]",0,0,1,10,15,21,22,86%,100%,1.3 × 10^−4 mmHg,3.5 × 10^−5 mmHg,6.9 × 10^−5 mmHg,1.3 × 10^−4 mmHg,2.4 × 10^−4 mmHg,4.4 × 10^−4 mmHg,
"CC(C)=CC1C(C(=O)OCc2coc(Cc3ccccc3)c2)C1(C)C (mixture of isomers) [resmethrin, (5-benzyl-3-furyl)methyl d-cis/trans-chrysanthemate]",0,0,0,0,2,2,4,58%,79%,1.7 × 10^−5 mmHg,3.5 × 10^−6 mmHg,7.1 × 10^−6 mmHg,1.7 × 10^−5 mmHg,2.8 × 10^−5 mmHg,5.6 × 10^−5 mmHg,number of knockdowns ([1]; 4.0 min): 5; number of knockdowns ([1]; 4.5 min): 5; number of knockdowns ([1]; 5.0 min): 7; number of knockdowns ([1]; 5.5 min): 7; number of knockdowns ([1]; 6.0 min): 8; number of knockdowns ([1]; 6.5 min): 10; number of knockdowns ([1]; 7.0 min): 12; number of knockdowns ([1]; 7.5 min): 13; number of knockdowns ([1]; 8.0 min): 16; number of knockdowns ([1]; 8.5 min): 17; number of knockdowns ([1]; 9.0 min): 19
"CC(C)=CC1C(C(=O)OC(C#N)c2cccc(Oc3ccccc3)c2)C1(C)C (racemic) [cyphenothrin, (±) αa-cyano-3-phenoxybenzyl(+)-cis/trans-chrysanthemate]",,,,,,,,,,,9.2 × 10^−7 mmHg,1.9 × 10^−6 mmHg,3.6 × 10^−6 mmHg,6.6 × 10^−6 mmHg,1.3 × 10^−5 mmHg,
"C=CCC1=C(C)C(OC(=O)C2C(C)(C)C2(C)C)CC1=O (racemic) [terallethrin, dl-3-allyl-2-methyl-4-oxo-2-cyclopentenyl dl-cis/trans-2,2,3,3-tetramethylcyclopropanecarboxylate]",0,0,4,15,17,,,88%,100%,6.6 × 10^−4 mmHg,2.2 × 10^−4 mmHg,4.2 × 10^−4 mmHg,6.6 × 10^−4 mmHg,1.2 × 10^−3 mmHg,4.8 × 10^−3 mmHg,
"CC1(C)C(C=C(Cl)Cl)C1C(=O)OCc1c(F)c(F)cc(F)c1F (stereo not drawn) [benfluthrin, d-trans-2,3,5,6-tetrafluorobenzyl-3-(2,2-dichlorovinyl)-2,2-dimethyl-1-cyclopropanecarboxylate]",,,,,,,,,,,8.3 × 10^−5 mmHg,1.5 × 10^−4 mmHg,2.7 × 10^−4 mmHg,4.0 × 10^−4 mmHg,8.5 × 10^−4 mmHg,Knockdown Ratio (%) ([4]; 1 hr): 0%; Knockdown Ratio (%) ([4]; 2 hrs): 0%; Knockdown Ratio (%) ([4]; 4 hrs): 5.0%; Knockdown Ratio (%) ([4]; 24 hrs): 6.3%; Mortality at 48 hrs (%) ([4]; 48 hrs): 7.5%; Knockdown Ratio (%) ([5]; 1 hr): 0%; Knockdown Ratio (%) ([5]; 2 hrs): 0%; Knockdown Ratio (%) ([5]; 4 hrs): 0%; Knockdown Ratio (%) ([5]; 24 hrs): 87.5%; Mortality at 48 hrs (%) ([5]; 48 hrs): 97.5%
"C=CCC1=C(C)C(OC(=O)C2C(C=C(C)C)C2(C)C)CC1=O (stereo not drawn) [esbiol, d-3-allyl-2-methyl-4-oxo-2-cyclopentenyl d-trans-chrysanthemate]",0,0,1,3,10,17,19,70%,78%,1.2 × 10^−4 mmHg,,,,,,number of knockdowns ([1]; 4.0 min): 22
CC(C)=CC1C(C(=O)OCN2C(=O)C3=C(CCCC3)C2=O)C1(C)C (stereo not shown) [tetramethrin],,,,,,,,,,,2.4 × 10^−6 mmHg,4.4 × 10^−6 mmHg,8.5 × 10^−6 mmHg,1.7 × 10^−5 mmHg,3.2 × 10^−5 mmHg,
